This note sets out measurements from ChEMBL document CHEMBL2074296, “Kinetic analysis of hepatobiliary transport of organic anions in Eisai hyperbilirubinemic mutant rats” (J Pharmacol Exp Ther, 1993).

The target of data set [1] is T1, ATP-binding cassette sub-family C member 2 (Rattus norvegicus, UniProt Q63120). As to the kind of experiment: TP_TRANSPORTER: biliary excretion in EHBR rat. The data set is classed as functional, organism-based, Bile. As to conditions: in vivo.
Data set [2] deals with T1, ATP-binding cassette sub-family C member 2. As to the kind of experiment: TP_TRANSPORTER: biliary excretion in SD rat. As to conditions: in vivo. The data set is classed as functional, organism-based, Sprague-Dawley, Bile.

The structures appear in SMILES notation.

T1 sequence (Q63120 whole entry): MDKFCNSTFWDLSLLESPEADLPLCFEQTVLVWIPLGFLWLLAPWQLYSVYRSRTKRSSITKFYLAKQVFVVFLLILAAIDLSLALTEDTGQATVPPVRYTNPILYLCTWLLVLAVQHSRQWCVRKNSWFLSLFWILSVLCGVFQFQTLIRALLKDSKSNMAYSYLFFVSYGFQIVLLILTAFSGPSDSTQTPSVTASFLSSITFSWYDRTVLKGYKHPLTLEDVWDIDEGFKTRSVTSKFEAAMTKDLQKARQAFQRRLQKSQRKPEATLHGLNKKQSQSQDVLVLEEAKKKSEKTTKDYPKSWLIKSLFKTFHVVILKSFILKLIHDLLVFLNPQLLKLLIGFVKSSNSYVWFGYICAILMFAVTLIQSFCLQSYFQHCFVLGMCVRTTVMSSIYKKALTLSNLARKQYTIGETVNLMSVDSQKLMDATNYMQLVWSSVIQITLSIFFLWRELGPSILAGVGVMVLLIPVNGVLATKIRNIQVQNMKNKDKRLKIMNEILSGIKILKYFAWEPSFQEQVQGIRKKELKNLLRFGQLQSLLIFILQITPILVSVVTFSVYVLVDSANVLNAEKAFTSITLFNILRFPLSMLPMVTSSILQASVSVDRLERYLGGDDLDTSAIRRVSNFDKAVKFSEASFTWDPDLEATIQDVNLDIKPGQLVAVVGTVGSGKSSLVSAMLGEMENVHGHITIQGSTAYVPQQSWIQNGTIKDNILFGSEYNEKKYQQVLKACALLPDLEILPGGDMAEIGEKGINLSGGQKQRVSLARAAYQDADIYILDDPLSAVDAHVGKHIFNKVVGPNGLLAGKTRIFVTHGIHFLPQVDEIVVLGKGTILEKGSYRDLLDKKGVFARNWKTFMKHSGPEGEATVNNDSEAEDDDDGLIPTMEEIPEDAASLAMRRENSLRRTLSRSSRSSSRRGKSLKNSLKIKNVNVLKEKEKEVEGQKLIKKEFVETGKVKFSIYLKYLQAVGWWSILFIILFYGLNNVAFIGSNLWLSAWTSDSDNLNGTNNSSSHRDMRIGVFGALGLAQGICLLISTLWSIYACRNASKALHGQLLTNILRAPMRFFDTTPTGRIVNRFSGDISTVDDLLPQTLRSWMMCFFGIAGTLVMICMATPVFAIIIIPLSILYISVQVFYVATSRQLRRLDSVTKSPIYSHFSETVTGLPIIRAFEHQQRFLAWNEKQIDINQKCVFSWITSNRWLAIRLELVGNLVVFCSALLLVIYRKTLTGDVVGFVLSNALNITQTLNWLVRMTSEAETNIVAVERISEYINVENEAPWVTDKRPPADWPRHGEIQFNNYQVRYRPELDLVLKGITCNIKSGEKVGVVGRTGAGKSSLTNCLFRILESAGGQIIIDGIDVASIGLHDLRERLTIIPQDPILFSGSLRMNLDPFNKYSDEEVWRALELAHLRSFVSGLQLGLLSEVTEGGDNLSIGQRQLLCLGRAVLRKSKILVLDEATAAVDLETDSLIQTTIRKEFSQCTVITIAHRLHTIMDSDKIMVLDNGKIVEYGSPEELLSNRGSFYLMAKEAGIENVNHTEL

Turning to `O=C1OC(c2ccc(OS(=O)(=O)O)cc2)(c2ccc(OS(=O)(=O)O)cc2)c2c(Br)ccc(Br)c21` [DIBROMOSULFOPHTHALEIN], the Activity entry in data set [1] and in data set [2] was “substrate [+]” throughout.
For `CO/N=C(\C(=O)N[C@@H]1C(=O)N2C(C(=O)O)=C(CSc3nc(C)c(CC(=O)O)s3)CS[C@H]12)c1csc(N)n1` [CEFODIZIME], the Activity entry in data set [1] and in data set [2] was “substrate [+]” throughout.
As for `CC1(C)C(/C=C/C=C/C=C/C=C2/N(CCCCS(=O)(=O)[O-])c3ccc4ccccc4c3C2(C)C)=[N+](CCCCS(=O)(=O)[O-])c2ccc3ccccc3c21.[Na+]` [INDOCYANINE GREEN], the Activity entry in data set [1] and in data set [2] was “substrate [+]” throughout.
